Several values for one entry are separate records, joined by “and”; a condition that tells them apart may be missing. Equal values may be shown once.
Columns and labels:
Settings in all cases: average where tested multiple times
[1] = biological target: T1, BCAT2 (Homo sapiens, UniProt O15382); experiment: BCAT2 in vitro enzyme inhibition assay (resazurin/diaphorase-coupled fluorescence); type: biochemical; set-up: key to BCAT2 Enzyme Inhibition: A: less than or equal to 0.100 μM; B: greater than 0.100 and less than or equal to 0.500 μM; C: greater than 0.500 and less than or equal to 1.000 μM; d: greater than 1.000 μM; E: no fit
T1 sequence (O15382 28-392): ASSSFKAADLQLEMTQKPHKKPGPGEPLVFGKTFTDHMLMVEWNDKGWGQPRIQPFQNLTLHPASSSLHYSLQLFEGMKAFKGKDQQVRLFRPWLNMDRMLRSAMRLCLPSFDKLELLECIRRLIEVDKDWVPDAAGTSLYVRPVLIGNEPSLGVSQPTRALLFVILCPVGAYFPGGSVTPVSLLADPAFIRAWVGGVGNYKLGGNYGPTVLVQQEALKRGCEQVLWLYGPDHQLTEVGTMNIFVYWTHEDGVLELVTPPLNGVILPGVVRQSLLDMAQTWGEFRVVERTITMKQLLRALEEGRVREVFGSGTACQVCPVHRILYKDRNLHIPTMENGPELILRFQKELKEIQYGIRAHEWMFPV
How it was run: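 Coupled fluorescence readout: glutamate formed from L-leucine/α-ketoglutarate transamination drives GDH/NAD/diaphorase reduction of resazurin (Ex 540/Em 590). Human BCAT2 was first exposed 1 h at room temperature to compound, top final 100 μM in 3-fold, 10-point series; substrate reaction ran 1 h before SDS quench, in technical duplicate with DMSO max and enzyme-free min controls.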

[2] = biological target: T2, hBCAT1 (Homo sapiens, UniProt P54687); experiment: BCAT1 in vitro enzyme inhibition assay (resazurin/diaphorase-coupled fluorescence); type: biochemical
T2 sequence (P54687 1-386): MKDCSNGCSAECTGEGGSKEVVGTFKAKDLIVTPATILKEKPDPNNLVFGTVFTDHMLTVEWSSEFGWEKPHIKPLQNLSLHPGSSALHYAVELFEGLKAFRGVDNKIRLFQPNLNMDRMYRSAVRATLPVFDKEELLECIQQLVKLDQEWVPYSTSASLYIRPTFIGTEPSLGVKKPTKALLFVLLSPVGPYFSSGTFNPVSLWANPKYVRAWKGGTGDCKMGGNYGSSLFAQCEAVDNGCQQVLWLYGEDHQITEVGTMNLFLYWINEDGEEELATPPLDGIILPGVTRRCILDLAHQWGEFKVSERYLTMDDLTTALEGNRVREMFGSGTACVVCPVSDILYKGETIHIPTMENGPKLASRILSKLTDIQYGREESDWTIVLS
Experimental: BCAT1 In Vitro Enzyme Inhibition Assay
Meanwhile the Substrate Mix was prepared.
Test Compound Preparation:
Test compounds were prepared at 50× final concentration in DMSO, 1 to 3 dilutions were made for 10 points. The compounds were added to the assay as a 1 to 50 dilution (1 μL in 50 μL) to yield a top assay final concentration of 100 μM, decreasing 3-fold for 10 points. […] All tests were performed in technical duplicate.
Where a compound was tested multiple times, the average value of the tests is reported.

[3] = biological target: T1, BCAT2; experiment: BCAT2 in vitro cell inhibition using engineered A549 cells (KMV cell assay, 13C6-KMV by LC-MS/MS); type: cell-based; set-up: The result was an engineered A549 cell line that expressed endogenous BCAT2; endogenous in cells; host or cells: A549 cells with MUT and BCAT1 knocked out by CRISPR/CAS9; key to BCAT2 Cell Inhibition: A: less than or equal to 0.100 μM; B: greater than 0.100 and less than or equal to 0.500 μM; C: greater than 0.500 and less than or equal to 1.000 μM; d: greater than 1.000 μM; E: no fit

Compound | IC50 [1] [µM] | IC50 [2] [µM] | BCAT2 Cell Inhibition [3] | IC50 [3] | BCAT2 Enzyme Inhibition [1]
CC(=O)N1CC(NC(=O)c2ccc(Br)s2)CC(n2c(-c3ccccn3)nc3ccc(C#N)cc32)C1 (stereo not shown) [Example 289, N-(1-acetyl-5-(6-cyano-2-(pyridin-2-yl)-1H-benzo[d]imidazol-1-yl)piperidin-3-yl)-5-bromothiophene-2-carboxamide] | 0.1 to 0.5 | > 5 | – | – | –
Cn1cc(-c2cc3nc(-c4ccccn4)n(C4CCCC(NC(=O)c5ccc(Br)s5)C4)c3cn2)cn1 (stereo not shown) [Example 156, 5-bromo-N-(3-(6-(1-methyl-1H-pyrazol-4-yl)-2-(pyridin-2-yl)-3H-imidazo[4,5-c]pyridin-3-yl)cyclohexyl)thiophene-2-carboxamide] | > 1 | > 5 | – | – | –
CC(C)Cc1nc2cnc(-c3cc(C(F)(F)F)n[nH]3)cc2n1[C@H]1CCC[C@@H](NC(=O)c2ncc(Cl)s2)[C@@H]1O [Example 217, 5-chloro-N-((1R,2S,3S)-2-hydroxy-3-(2-isobutyl-6-(3-(trifluoromethyl)-1H-pyrazol-5-yl)-1H-imidazo[4,5-c]pyridin-1-yl)cyclohexyl)thiazole-2-carboxamide] | > 1 | – | E | – | –
CC(C)Cc1nc2cnc(-c3ccn(C)n3)cc2n1C1CC(O)CC(NC(=O)c2ncc(Cl)s2)C1 (stereo not shown) [Example 210, 5-chloro-N-(3-hydroxy-5-(2-isobutyl-6-(1-methyl-1H-pyrazol-3-yl)-1H-imidazo[4,5-c]pyridin-1-yl)cyclohexyl)thiazole-2-carboxamide] | ≤ 0.1 | – | – | 0.5 to 1 µM | –
CC(C)Cc1nc2cnc(-c3cccc(C#N)n3)cc2n1[C@H]1CCC[C@@H](NC(=O)c2ncc(Cl)s2)[C@@H]1O [Example 391, 5-chloro-N-((1R,2S,3S)-3-(6-(6-cyanopyridin-2-yl)-2-isobutyl-1H-imidazo[4,5-c]pyridin-1-yl)-2-hydroxycyclohexyl)thiazole-2-carboxamide] | > 1 | – | E | – | –
CC(=O)N[C@@H](c1nc2cnc(-c3nc[nH]n3)cc2n1[C@@H]1CCC[C@H](NC(=O)c2ncc(Cl)s2)C1)C(C)C [Example 369, N-((1S,3R)-3-(2-((R)-1-acetamido-2-methylpropyl)-6-(1H-1,2,4-triazol-3-yl)-1H-imidazo[4,5-c]pyridin-1-yl)cyclohexyl)-5-chlorothiazole-2-carboxamide] | 0.5 to 1 | – | E | – | –
COC(=O)N1C[C@@H](NC(=O)c2ccc(Cl)s2)C[C@@H](n2c(-c3ccccc3F)nc3cnc(-c4nc[nH]n4)cc32)C1 [Example 463, methyl (3S,5R)-3-(5-chlorothiophene-2-carboxamido)-5-(2-(2-fluorophenyl)-6-(1H-1,2,4-triazol-3-yl)-1H-imidazo[4,5-c]pyridin-1-yl)piperidine-1-carboxylate] | ≤ 0.1 | – | – | 0.5 to 1 µM | –
CC(C)Cc1nc2cnc(-c3cccc(F)n3)cc2n1[C@H]1CCC[C@@H](NC(=O)c2ncc(Cl)s2)[C@@H]1O [Example 208, 5-chloro-N-((1R,2S,3S)-3-(6-(6-fluoropyridin-2-yl)-2-isobutyl-1H-imidazo[4,5-c]pyridin-1-yl)-2-hydroxycyclohexyl)thiazole-2-carboxamide] | > 1 | – | E | – | –
CO[C@H]1C[C@H](NC(=O)c2ncc(Cl)s2)C[C@H](n2c(CC(C)C)nc3cnc(-c4nc[nH]n4)cc32)C1 (stereo in doubt) [Example 413, 5-chloro-N-((1R,3S,5S)-3-(2-isobutyl-6-(1H-1,2,4-triazol-3-yl)-1H-imidazo[4,5-c]pyridin-1-yl)-5-methoxycyclohexyl)thiazole-2-carboxamide] | > 1 | – | E | – | –
CC(C)Cc1nc2cnc(-n3nccn3)cc2n1[C@H]1C[C@H](O)C[C@@H](NC(=O)c2ccc(Cl)s2)C1 (single isomer, unassigned) [Example 396] | ≤ 0.1 | – | – | > 1 µM | –
CC(C)Cc1nc2cnc(N3CCC[C@H]3C#N)cc2n1[C@@H]1CCC[C@H](NC(=O)c2ncc(Cl)s2)C1 [Example 309, 5-chloro-N-((1S,3R)-3-(6-((S)-2-cyanopyrrolidin-1-yl)-2-isobutyl-1H-imidazo[4,5-c]pyridin-1-yl)cyclohexyl)thiazole-2-carboxamide] | > 1 | – | E | – | –
CC(C)C(O)c1nc2cnc(-c3nc[nH]n3)cc2n1[C@@H]1CCC[C@H](NC(=O)c2ncc(Cl)s2)C1 (single isomer, unassigned) [Example 182] | ≤ 0.1 | – | – | 0.5 to 1 µM | –
O=C(N[C@H]1CCC[C@@H](n2c(-c3ccccc3F)nc3ccc(-c4ncccn4)cc32)[C@@H]1O)c1ncc(Cl)s1 [Example 466, 5-chloro-N-((1S,2R,3R)-3-(2-(2-fluorophenyl)-6-(pyrimidin-2-yl)-1H-benzo[d]imidazol-1-yl)-2-hydroxycyclohexyl)thiazole-2-carboxamide] | ≤ 0.1 | – | – | ≤ 0.1 µM | –
CO[C@@H]1C[C@H](NC(=O)c2ncc(Cl)s2)C[C@H](n2c(-c3ccccc3F)nc3cnc(-c4nc[nH]n4)cc32)C1 (stereo in doubt) [Example 419, 5-chloro-N-((1R,3S,5R)-3-(2-(2-fluorophenyl)-6-(1H-1,2,4-triazol-3-yl)-1H-imidazo[4,5-c]pyridin-1-yl)-5-methoxycyclohexyl)thiazole-2-carboxamide] | ≤ 0.1 | – | – | ≤ 0.1 µM and 0.1 to 0.5 µM | –
CO[C@H]1C[C@H](NC(=O)c2ccc(Cl)s2)C[C@H](n2c(-c3ccccc3F)nc3cnc(-c4nc[nH]n4)cc32)C1 (stereo in doubt) [Example 411, 5-chloro-N-((1R,3S,5S)-3-(2-(2-fluorophenyl)-6-(1H-1,2,4-triazol-3-yl)-1H-imidazo[4,5-c]pyridin-1-yl)-5-methoxycyclohexyl)thiophene-2-carboxamide] | 0.1 to 0.5 | – | – | > 1 µM | –
CO[C@H]1[C@@H](NC(=O)c2ncc(Cl)s2)CCC[C@H]1n1c(-c2ccccc2F)nc2cnc(-c3nc[nH]n3)cc21 [Example 433, 5-chloro-N-((1S,2S,3R)-3-(2-(2-fluorophenyl)-6-(1H-1,2,4-triazol-3-yl)-1H-imidazo[4,5-c]pyridin-1-yl)-2-methoxycyclohexyl)thiazole-2-carboxamide] | – | – | E | – | E
O=C(N[C@@H]1CCC[C@H](n2c(-c3ccccc3F)nc3cnc(-c4ccccn4)cc32)[C@H]1O)c1ncc(Cl)s1 [Example 241, 5-chloro-N-((1R,2S,3S)-3-(2-(2-fluorophenyl)-6-(pyridin-2-yl)-1H-imidazo[4,5-c]pyridin-1-yl)-2-hydroxycyclohexyl)thiazole-2-carboxamide] | 0.1 to 0.5 | – | – | 0.1 to 0.5 µM | –
CC(C)Cc1nc2cnc(-c3ccccn3)cc2n1[C@H]1C[C@H](O)C[C@@H](NC(=O)c2ncc(Cl)s2)C1 (single isomer, unassigned) [Example 215] | 0.5 to 1 | – | E | – | –
COC[C@H]1CCCN1c1cc2c(cn1)nc(-c1ccccc1F)n2[C@@H]1CCC[C@H](NC(=O)c2ncc(Cl)s2)C1 [Example 198, 5-chloro-N-((1S,3R)-3-(2-(2-fluorophenyl)-6-((R)-2-(methoxymethyl)pyrrolidin-1-yl)-1H-imidazo[4,5-c]pyridin-1-yl)cyclohexyl)thiazole-2-carboxamide] | > 1 | – | – | > 1 µM | –
CC(C)Cc1nc2cnc(-c3cccc(F)n3)cc2n1[C@@H]1C[C@@H](O)C[C@H](NC(=O)c2ncc(Cl)s2)C1 (stereo in doubt) [Example 384, 5-chloro-N-((1R,3S,5S)-3-(6-(6-fluoropyridin-2-yl)-2-isobutyl-1H-imidazo[4,5-c]pyridin-1-yl)-5-hydroxycyclohexyl)thiazole-2-carboxamide] | > 1 | – | – | > 1 µM | –

Source: patent publication US20260159512A1, “BCAT2 INHIBITORS” (AGIOS PHARMACEUTICALS, INC., priority 2021, published 2026)
